pIC50: −log10 of the molar value. Several values for one entry are separate records, joined by “and”; a condition that tells them apart may be missing. Identical values can stand only once.
Columns and labels:
[1] = system: NCI-H295R; assay: maximal response (efficacy) relative to DMSO (0%) and doxorubicin (-100%); higher = less growth inhibition; settings: 48 h
[2] = system: NCI-H295R; assay: IC50 (antiproliferative, ATP content); settings: 48 h

| Structure (SMILES) | maximal response [1] | pIC50 [2] |
| --- | --- | --- |
| Oc1cc[c]([Hg][Cl])cc1 | -130% | 5.57 |
| Oc1c(I)cc(Cl)c2cccnc12 | -64.3% | 5.07 |
| Nc1ccc2cc3ccc(N)cc3nc2c1.Nc1ccc2cc3ccc(N)cc3nc2c1.O=S(=O)(O)O | -138% | 4.72 |
| O=C\1OC/C(=C/1)[C@H]8CC[C@@]7(O)[C@]8(C)CC[C@H]2[C@H]7CC[C@@H]3C[C@H](CC[C@]23C)O[C@@H]6O[C@H](C)[C@@H](O[C@H]5C[C@H](O)[C@H](O[C@H]4C[C@H](O)[C@H](O)[C@@H](C)O4)[C@@H](C)O5)[C@@H](O)C6 | -109% | 7.08 |
| CCCCCCCCN[C@H](C)C(O)c1ccc(SC(C)C)cc1 (stereo partly drawn) | -137% | 4.67 |
| CCCCC(=O)OCC(=O)[C@]1(O)Cc2c(O)c3c(c(O)c2[C@@H](O[C@H]2C[C@H](NC(=O)C(F)(F)F)[C@H](O)[C@H](C)O2)C1)C(=O)c1c(OC)cccc1C3=O | -71.8% | 4.87 |
| COc1cc2c(cc1O)CCN[C@]21CS[C@@H]2c3c(OC(C)=O)c(C)c4c(c3[C@H](COC1=O)N1[C@@H]2[C@H]2c3c(cc(C)c(OC)c3O)C[C@@H]([C@@H]1O)N2C)OCO4 | -117% | 8.03 |
| COc1ccc(CN2CCN(C(c3ccc(F)cc3)c3ccc(F)cc3)CC2)c(OC)c1OC | -95.1% | 4.67 |
| COc1cc(N[S+](C)(=O)[O-])ccc1Nc1c2ccccc2nc2ccccc12 | -65.5% | 5.42 |
| Nc1nc(N)c2nc(CNc3ccc(C(=O)N[C@@H](CCC(=O)O)C(=O)O)cc3)cnc2n1 | -79.1% | 5.07 |
| Cl.Cl.Fc1ccc(C(OCCN2CCN(CCCc3ccccc3)CC2)c2ccc(F)cc2)cc1 | -154% | 4.62 |
| C[C@@H](C)[C@H]1C3=C(C=C(F)C=C3)CC[C@@](OC(COC)=O)1CCN(C)CCCC4=NC2=C(N4)C=CC=C2.Cl.Cl | -126% | 4.97 |
| C[C@]12O[C@H](C[C@]1(O)CO)n1c3ccccc3c3c4c(c5c6ccccc6n2c5c31)CNC4=O | -150% | 4.72 |
| CCc1nc(N)nc(N)c1-c1ccc(Cl)cc1 | -81.4% | 6.12 |
| c1ccc2c(c1)OCC(C1=NCCN1)O2 (stereo not drawn) | -106% | 4.72 |
| COCC(=O)Nc1cc(Sc2ccccc2)ccc1N=C(NC(=O)OC)NC(=O)OC | -64.1% | 5.07 |
| O=C1C2CC=CCC2C(=O)N1SC(Cl)(Cl)Cl (stereo not drawn) | -105% | 4.77 |
| CS(=O)(=O)O.Cc1ccc(NC(=O)c2ccc(CN3CCN(C)CC3)cc2)cc1Nc1nccc(-c2cccnc2)n1 | -61.7% | 4.72 |
| COC(C(=O)C(O)C(C)O)C1Cc2cc3cc(OC4CC(OC5CC(O)C(O)C(C)O5)C(O)C(C)O4)c(C)c(O)c3c(O)c2C(=O)C1OC1CC(OC2CC(OC3CC(C)(O)C(O)C(C)O3)C(O)C(C)O2)C(O)C(C)O1 (stereo not drawn) | -125% | 5.92 |
| O=C(Nc1cccc(C(F)(F)F)c1)c1cc(Br)cc(Br)c1O | -140% | 5.22 |
| [C@@]82([C@@]([C@@H](/C1=C/C(=O)OC1)CC2)(CC[C@@H]9[C@]7(CCC(O[C@@H]3O[C@@H]([C@H]([C@H](C3)O)O[C@@H]6O[C@@H]([C@@H](O[C@@H]5O[C@@H]([C@@H](O[C@H]4[C@@H]([C@@H](O)[C@@H]([C@H](O4)CO)O)O)[C@H](C5)OC(=O)C)C)[C@H](C6)O)C)C)C[C@H]7CC[C@@H]89)C)C)O (stereo partly drawn) | -114% | 6.72 |
| [Cl-].[Cl-].[Hg+2] | -127% | 4.92 |
| [O-]n1ccccc1=S.[O-]n1ccccc1=S.[Zn+2] | -125% | 5.57 |
| Oc1c(Br)cc(Br)c2cccnc12 | -80.8% | 5.17 |
| OB(O)[O][Hg][c]1ccccc1 | -130% | 5.42 |
| COc1ccc(C=CC(=O)c2ccc(OC)cc2OC)cc1 | -117% | 4.62 |
| Oc1c(I)cc(I)c2cccnc12 | -82.7% | 5.27 |

| Structure (SMILES) | maximal response [1] | pIC50 [2] |
| --- | --- | --- |
| CC(C)C[C@@H]1NC(=O)[C@H](CCCN)NC(=O)[C@H](C(C)C)NC(=O)[C@@H]2CCCN2C(=O)[C@@H](Cc2ccccc2)NC(=O)[C@H](CC(C)C)NC(=O)[C@H](CCCN)NC(=O)[C@H](C(C)C)NC(=O)[C@@H]2CCCN2C(=O)[C@@H](Cc2ccccc2)NC1=O | -121% | 5.07 |
| CO[C@@H]1[C@H](C)O[C@@H](O[C@H]2C[C@@H](Oc3cc4cc5c(c(O)c4c(O)c3C)C(=O)[C@H](O[C@@H]3C[C@H](O[C@@H]4C[C@H](O[C@@H]6C[C@@](C)(O)[C@H](OC(C)=O)[C@@H](C)O6)[C@@H](O)[C@H](C)O4)[C@@H](O)[C@H](C)O3)[C@@H]([C@@H](OC)C(=O)[C@H](O)[C@H](C)O)C5)O[C@@H](C)[C@H]2OC(C)=O)C[C@@H]1O | -111% | 5.97 |
| Cc1cc(CC(C)CC(C)(C)C)n(O)c(=O)c1.NCCO (stereo not drawn) | -96.2% | 4.62 |
| Cc1cc(O)c2ccccc2c1O | -137% | 4.67 |
| CC(C)C[C@H](NC(=O)[C@H](Cc1ccccc1)NC(=O)c1cnccn1)B(O)O | -74.3% and -77.1% | 6.52 and 6.47 |
| CN(C)C3=CC=C(C=C3)/C(C2=CC=C(N(C)C)C=C2)=C(C=C1)/C=C/C1=N/C | -167% | 4.67 |
| CO[C@H](C(=O)[C@@H](O)[C@@H](C)O)[C@@H]1Cc2cc3cc(O[C@H]4C[C@@H](O[C@H]5C[C@@H](O)[C@H](O)[C@@H](C)O5)[C@@H](O)[C@@H](C)O4)c(C)c(O)c3c(O)c2C(=O)[C@H]1O[C@H]1C[C@@H](O[C@H]2C[C@@H](O[C@H]3C[C@](C)(O)[C@H](O)[C@@H](C)O3)[C@H](O)[C@@H](C)O2)[C@H](O)[C@@H](C)O1 | -118% | 6.02 |
| Cc1cc(/C=C/c2ccc3cc(N(C)C)ccc3[n+]2C)c(C)n1-c1ccccc1.Cc1cc(/C=C/c2ccc3cc(N(C)C)ccc3[n+]2C)c(C)n1-c1ccccc1.O=C([O-])c1cc2ccccc2c(Cc2c(O)c(C(=O)[O-])cc3ccccc23)c1O | -69.7% | 5.14 |
| CC(=O)Nc1ccc(NC(=S)NC(=O)c2ccc(C(C)(C)C)cc2)cc1 | -151% | 4.67 |
| Cn1cnc([N+](=O)[O-])c1Sc1ncnc2nc[nH]c12 | -82.1% | 4.92 |
| C[n+]1c2cc(N)ccc2cc2ccc(N)cc21.Nc1ccc2cc3ccc(N)cc3nc2c1.[Cl-] | -168% | 4.67 |
| Oc1cccc[c]1[Hg][Cl] | -130% | 5.57 |
| Nc1nc(N)c2nc(-c3ccccc3)c(N)nc2n1 | -89.3% | 5.57 |
| Cc1c2oc3c(C)ccc(C(=O)N[C@@H]4C(=O)N[C@H](C(C)C)C(=O)N5CCC[C@H]5C(=O)N(C)CC(=O)N(C)[C@@H](C(C)C)C(=O)O[C@H]4C)c3nc-2c(C(=O)N[C@@H]2C(=O)N[C@H](C(C)C)C(=O)N3CCC[C@H]3C(=O)N(C)CC(=O)N(C)[C@@H](C(C)C)C(=O)O[C@H]2C)c(N)c1=O | -113% | 6.42 |
| CN(C)C(=O)CCSC(SCCC(=O)[O-])c1cccc(/C=C/c2ccc3ccc(Cl)cc3n2)c1.[Na+] (stereo not drawn) | -77.8% | 4.57 |
| CC[C@@]1(O)C(=O)OCc2c1cc1n(c2=O)Cc2cc3c([N+](=O)[O-])cccc3nc2-1 | -91.1% | 4.77 |
| O=C(Nc1ccc([N+](=O)[O-])cc1Cl)c1cc(Cl)ccc1O | -94.3% | 6.27 |
| O=C1C(=O)c2ncccc2-c2cccnc21 | -63% | 5.42 |
| [K+].[K+].[O]=[Cr](=[O])([O-])[O][Cr](=[O])(=[O])[O-] | -166% | 4.92 |
| CN(Cc1cnc2nc(N)nc(N)c2n1)c1ccc(C(=O)N[C@@H](CCC(=O)O)C(=O)O)cc1 | -74.9% | 7.73 |
| CC[C@@H](C(=O)[C@@H](C)[C@@H](O)[C@H](C)[C@@H]1O[C@@H]([C@@H](CC)C(=O)[O-])CC[C@@H]1C)[C@H]1O[C@]2(C=C[C@@H](O)[C@]3(CC[C@@](C)([C@H]4CC[C@](O)(CC)[C@H](C)O4)O3)O2)[C@H](C)C[C@@H]1C.[Na+] | -80.1% | 4.87 |
| O=S(=O)([O-])c1cc(O)c2c(N=Nc3ccc(Nc4ccccc4)c4c(S(=O)(=O)[O-])cccc34)cc(S(=O)(=O)[O-])cc2c1.[Na+].[Na+].[Na+] | -73.8% | 4.92 |
| COc1cc(C(=O)NS(=O)(=O)c2ccccc2C)ccc1Cc1cn(C)c2ccc(NC(=O)OC3CCCC3)cc12 | -134% | 4.67 |
| NC(C(C)=C2)=CC=C2/C(C1=CC=C(N)C=C1)=C3/C=CC(C=C3)=N.Cl | -87.4% | 4.92 |
| [H][C@]1(CC3)[C@]([C@H]5C[C@@H]4[C@@](C=C6)=COC6=O)(O5)[C@]4(C)CC[C@]([C@]2(C)[C@@]3([H])C[C@@H](O)CC2)1[H] | -105% | 5.17 |
| CC(=O)[C@]1(O)Cc2c(O)c3c(c(O)c2[C@@H](O[C@H]2C[C@H](N)[C@H](O)[C@H](C)O2)C1)C(=O)c1c(O)cccc1C3=O | -123% and -125% | 5.92 and 5.72 |
| COP(=S)(OC)Oc1ccc(Sc2ccc(OP(=S)(OC)OC)cc2)cc1 | -96.4% | 4.67 |
